From ChEMBL document CHEMBL6092214, “Design, synthesis, and pharmacological characterization of sulfonylurea-based NLRP3 inhibitors: Towards an effective therapeutic strategy for Alzheimer's disease” (Eur J Med Chem, 2024)
Values belong to the compound of their own block, whether it stands above or below them. The source made the active and inactive calls. The calls are words filed in the database; no cut-off is given here.

Experiments:
[1] = biological target: T1, NACHT, LRR and PYD domains-containing protein 3 (Homo sapiens, UniProt Q96P20); assay: (§1) Inhibition of NLRP3 inflammasome activation in PMA-differentiated human THP-1 cells assessed as reduction in LPS/MSU-induced IL-1beta secretion preincubated with LPS for 3 hrs followed by compound addition for 30 mins prior to MSU addition and measured after 4 hrs by ELISA method; format: cell-based
T1 sequence (Q96P20 whole entry, the tested form may be a part): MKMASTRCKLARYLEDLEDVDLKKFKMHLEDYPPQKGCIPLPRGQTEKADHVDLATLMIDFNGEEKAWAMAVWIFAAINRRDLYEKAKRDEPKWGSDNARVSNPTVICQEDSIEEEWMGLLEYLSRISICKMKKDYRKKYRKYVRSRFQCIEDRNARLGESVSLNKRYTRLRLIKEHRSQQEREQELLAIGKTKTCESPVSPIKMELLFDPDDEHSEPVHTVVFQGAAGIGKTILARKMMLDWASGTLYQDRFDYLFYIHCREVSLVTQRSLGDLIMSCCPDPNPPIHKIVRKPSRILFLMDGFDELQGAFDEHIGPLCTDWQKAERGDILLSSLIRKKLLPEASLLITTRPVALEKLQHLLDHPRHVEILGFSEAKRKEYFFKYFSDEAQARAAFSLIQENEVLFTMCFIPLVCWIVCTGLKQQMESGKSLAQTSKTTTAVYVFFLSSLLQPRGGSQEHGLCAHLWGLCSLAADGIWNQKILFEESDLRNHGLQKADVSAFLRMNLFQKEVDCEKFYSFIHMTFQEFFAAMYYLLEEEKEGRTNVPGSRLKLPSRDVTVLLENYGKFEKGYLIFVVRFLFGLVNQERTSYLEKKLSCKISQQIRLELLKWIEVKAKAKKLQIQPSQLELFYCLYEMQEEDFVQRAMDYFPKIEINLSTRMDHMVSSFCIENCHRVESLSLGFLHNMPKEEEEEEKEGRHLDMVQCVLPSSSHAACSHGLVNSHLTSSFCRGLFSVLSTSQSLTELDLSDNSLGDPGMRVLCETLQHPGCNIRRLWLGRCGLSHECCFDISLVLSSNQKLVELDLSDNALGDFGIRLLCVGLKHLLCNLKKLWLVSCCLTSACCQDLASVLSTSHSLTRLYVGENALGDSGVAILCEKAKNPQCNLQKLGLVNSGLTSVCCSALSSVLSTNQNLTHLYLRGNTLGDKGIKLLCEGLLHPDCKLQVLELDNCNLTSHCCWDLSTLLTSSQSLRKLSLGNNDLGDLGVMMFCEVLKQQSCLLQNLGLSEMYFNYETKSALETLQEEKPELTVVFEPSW

HEK293 = assay: Cytotoxicity against HEK293 cells assessed as cell viability at 0.39 to 100 uM incubated for 24 hrs by CCK-8 method; format: toxicity, cell-based; conditions: human, hek293, 24 h, dose 0.39-100 µM
[2] = biological target: T1, NACHT, LRR and PYD domains-containing protein 3; assay: as §1, with “LPS/Nigericin-induced” for “LPS/MSU-induced”, “secretion at 30 nM” for “secretion”, “nigericin” for “MSU”, “30 mins” for “4 hrs”; format: cell-based; conditions: time 1.0 hrs
[3] = biological target: T1, NACHT, LRR and PYD domains-containing protein 3; assay: (§2) Inhibition of NLRP3 inflammasome activation in PMA-differentiated human THP-1 cells assessed as reduction in LPS/ATP-induced IL-1beta secretion at 30 nM preincubated with LPS for 3 hrs followed by compound addition for 30 mins prior to ATP addition and measured after 30 mins by ELISA method; format: cell-based; conditions: time 1.0 hrs
[4] = biological target: T1, NACHT, LRR and PYD domains-containing protein 3; assay: as §2, with “in LPS/Nigericin-induced” for “in LPS/ATP-induced”, “at 3” for “at 30”, “to nigericin” for “to ATP”, “method relative to control” for “method”; format: cell-based; conditions: time 1.0 hrs
[5] = biological target: T1, NACHT, LRR and PYD domains-containing protein 3; assay: as §2, with “at 3” for “at 30”, “method relative to control” for “method”; format: cell-based; conditions: time 1.0 hrs
[6] = biological target: T1, NACHT, LRR and PYD domains-containing protein 3; assay: Inhibition of NLRP3 inflammasome activation in LPS/Nigericin induced PMA-differentiated human THP-1 cells assessed as effect on ROS production by measuring red fluorescence by MitoSOX staining based immunofluorescence analysis; format: cell-based
[7] = biological target: T1, NACHT, LRR and PYD domains-containing protein 3; assay: Inhibition of NLRP3 inflammasome activation in LPS/Nigericin induced PMA-differentiated human THP-1 cells assessed as effect on mitochondrial membrane potential by Mitotracker staining based immunofluorescence analysis; format: cell-based
[8] = biological target: NACHT, LRR and PYD domains-containing protein 3 (Mus musculus) (UniProt Q8R4B8); assay: Inhibition of NLRP3 inflammasome activation in mouse BMDM cells assessed as decrease in LPS/Nigericin induced IL-1 beta level by Western blot analysis; format: cell-based; conditions: dose 10-40 nM
Chain of NACHT, LRR and PYD domains-containing protein 3 (Mus musculus) (Q8R4B8 whole entry, the tested form may be a part): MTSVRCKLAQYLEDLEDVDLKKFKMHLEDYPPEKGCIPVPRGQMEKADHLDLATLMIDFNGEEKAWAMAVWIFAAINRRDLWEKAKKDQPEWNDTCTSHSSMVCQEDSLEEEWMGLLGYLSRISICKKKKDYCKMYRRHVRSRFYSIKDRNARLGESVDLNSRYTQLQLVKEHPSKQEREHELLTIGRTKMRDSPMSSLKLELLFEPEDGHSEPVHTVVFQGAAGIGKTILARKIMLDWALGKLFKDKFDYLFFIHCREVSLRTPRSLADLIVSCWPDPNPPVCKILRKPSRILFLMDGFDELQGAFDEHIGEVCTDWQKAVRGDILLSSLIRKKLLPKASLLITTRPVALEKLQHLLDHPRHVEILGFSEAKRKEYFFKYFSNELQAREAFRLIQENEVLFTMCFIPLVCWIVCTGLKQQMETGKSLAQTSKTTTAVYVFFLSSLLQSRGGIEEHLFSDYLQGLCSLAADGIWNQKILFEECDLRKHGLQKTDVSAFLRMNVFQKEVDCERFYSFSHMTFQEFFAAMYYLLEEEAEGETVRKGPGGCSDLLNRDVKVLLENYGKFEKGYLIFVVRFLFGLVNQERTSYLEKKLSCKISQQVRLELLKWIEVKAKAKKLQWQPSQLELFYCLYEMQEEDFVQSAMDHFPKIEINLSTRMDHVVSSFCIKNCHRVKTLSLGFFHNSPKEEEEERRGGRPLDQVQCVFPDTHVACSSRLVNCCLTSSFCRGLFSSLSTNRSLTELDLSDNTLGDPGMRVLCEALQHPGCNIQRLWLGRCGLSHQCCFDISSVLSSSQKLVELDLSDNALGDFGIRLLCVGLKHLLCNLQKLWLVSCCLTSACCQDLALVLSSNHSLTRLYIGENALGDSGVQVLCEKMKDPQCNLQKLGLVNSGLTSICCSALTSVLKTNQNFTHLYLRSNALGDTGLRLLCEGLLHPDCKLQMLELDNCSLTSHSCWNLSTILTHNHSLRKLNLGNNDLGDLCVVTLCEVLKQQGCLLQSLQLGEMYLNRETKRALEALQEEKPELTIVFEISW

[9] = biological target: NACHT, LRR and PYD domains-containing protein 3 (Mus musculus) (UniProt Q8R4B8); assay: Inhibition of NLRP3 inflammasome activation in mouse BMDM cells assessed as decrease in LPS/Nigericin induced caspase-1 level by Western blot analysis; format: cell-based; conditions: dose 10-40 nM
[10] = biological target: NACHT, LRR and PYD domains-containing protein 3 (Mus musculus) (UniProt Q8R4B8); assay: Inhibition of NLRP3 inflammasome activation in mouse BMDM cells assessed as effect on LPS/Nigericin induced NLRP3 expression level at 10 to 40 nM by Western blot analysis; format: cell-based; conditions: dose 10-40 nM
[11] = biological target: NACHT, LRR and PYD domains-containing protein 3 (Mus musculus) (UniProt Q8R4B8); assay: Inhibition of NLRP3 inflammasome activation in mouse BMDM cells assessed as effect on LPS/Nigericin induced pro-IL-1beta expression level at 10 to 40 nM by Western blot analysis; format: cell-based; conditions: dose 10-40 nM
[12] = biological target: NACHT, LRR and PYD domains-containing protein 3 (Mus musculus) (UniProt Q8R4B8); assay: Inhibition of NLRP3 inflammasome activation in mouse BMDM cells assessed as effect on LPS/Nigericin induced procaspase-1 expression level at 10 to 40 nM by Western blot analysis; format: cell-based; conditions: dose 10-40 nM
[13] = biological target: NACHT, LRR and PYD domains-containing protein 3 (Mus musculus) (UniProt Q8R4B8); assay: Inhibition of NLRP3 inflammasome activation in mouse BMDM cells assessed as effect on LPS/Nigericin induced NEK7 expression level at 10 to 40 nM by Western blot analysis; format: cell-based; conditions: dose 10-40 nM
[14] = biological target: NACHT, LRR and PYD domains-containing protein 3 (Mus musculus) (UniProt Q8R4B8); assay: Inhibition of NLRP3 inflammasome activation in mouse BMDM cells assessed as effect on LPS/Nigericin induced ASC expression level at 10 to 40 nM by Western blot analysis; format: cell-based; conditions: dose 10-40 nM
Mus musculus [15] = assay: Anti-aging activity in […] AD mouse model assessed as upregulation of IGF-1 expression at 10 mg/kg administered via gavage daily for 30 days; format: functional, organism-based; conditions: time 30.0 day
[16] = biological target: T1, NACHT, LRR and PYD domains-containing protein 3; assay: Binding affinity to NLRP3 (unknown origin) assessed as dissociation constant by Surface Plasmon Resonance analysis
Mus musculus [17] = organism: Mus musculus; assay: Neuroprotective activity against scopolamine-induced cognitive impairment in AD mouse model assessed as reduction in escape latency by Morris water maze test; format: functional, organism-based; conditions: dose 5-30 mg/kg
Mus musculus [18] = assay: Locomotor activity in mouse assessed as effect on total distance traveled at 30 mg/kg measured for 1.5 hrs by Open field test; format: functional, organism-based
Mus musculus [19] = assay: Anti-aging activity in […] AD mouse model assessed as reduction in beta-galactosidase level at 10 mg/kg administered via gavage daily for 30 days; format: functional, organism-based; conditions: time 30.0 day
[20] = Hepatotoxicity in mouse assessed as effect on ALT level at 10 mg/kg measured after 30 days; format: toxicity, organism-based; conditions: in vivo, 720 h, time 30 day
[21] = Hepatotoxicity in mouse assessed as effect on AST level at 10 mg/kg measured after 30 days; format: toxicity, organism-based; conditions: in vivo, 720 h, time 30 day

IC50 [1]: 334 nM
Structure (SMILES): COC(=O)c1csc(S(=O)(=O)NC(=O)Nc2c(-c3ccc([N+](=O)[O-])cc3)ccc3c2CCC3)c1

IC50 [1]: > 1000 nM
Structure (SMILES): CC(C)(C)c1cc(-c2ccc3c(c2NC(=O)NS(=O)(=O)c2cc(C(C)(C)O)co2)CCC3)cc(C(C)(C)C)c1

IC50 [1]: > 1000 nM
Structure (SMILES): CN(C)Cc1ccc(S(=O)(=O)NC(=O)Nc2c(-c3ccc([N+](=O)[O-])cc3)ccc3c2CCC3)cc1

IC50 [1]: 27 nM
Structure (SMILES): CC(C)(O)c1coc(S(=O)(=O)NC(=O)Nc2c(-c3ccnc(F)c3)ccc3c2CCC3)c1

IC50 [1]: 6 nM
Structure (SMILES): CC(C)(O)c1coc(S(=O)(=O)NC(=O)Nc2c(-c3ccc([N+](=O)[O-])cc3)ccc3c2CCC3)c1

IC50 [1]: > 1000 nM
Structure (SMILES): CCCCc1ccc(-c2ccc3c(c2NC(=O)NS(=O)(=O)c2cc(C(C)(C)O)co2)CCC3)cc1

IC50 [1]: > 1000 nM
Structure (SMILES): Cc1ccsc1S(=O)(=O)NC(=O)Nc1c(-c2ccc([N+](=O)[O-])cc2)ccc2c1CCC2

IC50 [1]: 76 nM
Structure (SMILES): Cc1cccc(-c2ccc3c(c2NC(=O)NS(=O)(=O)c2cc(C(C)(C)O)co2)CCC3)c1

IC50 [1]: > 1000 nM
Structure (SMILES): CC(C)(O)c1coc(S(=O)(=O)NC(=O)Nc2c3c(cc(Br)c2OC2CCCC2)CCC3)c1

IC50 [1]: 84 nM
Structure (SMILES): CCCCNC(=O)c1cccc(-c2ccc3c(c2NC(=O)NS(=O)(=O)c2cc(C(C)(C)O)co2)CCC3)c1

IC50 [1]: > 1000 nM
Structure (SMILES): O=C(Nc1c(-c2ccc([N+](=O)[O-])cc2)ccc2c1CCC2)NS(=O)(=O)CCO

IC50 [1]: 357 nM
Structure (SMILES): CC(C)(O)c1coc(S(=O)(=O)NC(=O)Nc2c(-c3cccc(OC(F)(F)F)c3)ccc3c2CCC3)c1

IC50 [1]: > 1000 nM
Structure (SMILES): O=C(Nc1c(-c2ccc([N+](=O)[O-])cc2)ccc2c1CCC2)NS(=O)(=O)c1cccnc1

IC50 [1]: 12 nM
inhibition [4]: > 50%
inhibition [5]: > 50%
inhibition [6]: inactive
inhibition [7]: inactive
inhibition [8]: Dose-dependent-effect
inhibition [9]: Dose-dependent-effect
inhibition [10]: inactive
inhibition [11]: inactive
inhibition [12]: inactive
inhibition [13]: inactive
inhibition [14]: inactive
Kd [16]: 19.3 nM
Structure (SMILES): CC(C)(O)c1csc(S(=O)(=O)NC(=O)Nc2c(-c3ccc([N+](=O)[O-])cc3)ccc3c2CCC3)c1
Activity (HEK293): Non-toxic
inhibition [2]: Active; Compound Nearly Abolished Il-1 Beta Secretion
inhibition [3]: Active; Compound Nearly Abolished Il-1 Beta Secretion
Activity (Mus musculus [15]): Active
Activity (Mus musculus [17]): Dose-dependent-effect
Activity (Mus musculus [18]): Active
Activity (Mus musculus [19]): Active
Activity [20]: Non-toxic
Activity [21]: Non-toxic

IC50 [1]: > 1000 nM
Structure (SMILES): COc1cccc(OC)c1-c1ccc2c(c1NC(=O)NS(=O)(=O)c1cc(C(C)(C)O)co1)CCC2

IC50 [1]: > 1000 nM
Structure (SMILES): O=C(Nc1c(-c2ccc([N+](=O)[O-])cc2)ccc2c1CCC2)NS(=O)(=O)c1ccc2ccccc2c1

IC50 [1]: > 1000 nM
Structure (SMILES): CN(C)c1cccc(-c2ccc3c(c2NC(=O)NS(=O)(=O)c2cc(C(C)(C)O)co2)CCC3)c1

IC50 [1]: 564 nM
Structure (SMILES): Cc1cc(F)ccc1-c1ccc2c(c1NC(=O)NS(=O)(=O)c1cc(C(C)(C)O)co1)CCC2

IC50 [1]: 244 nM
Structure (SMILES): COCCOc1ccc(-c2ccc3c(c2NC(=O)NS(=O)(=O)c2cc(C(C)(C)O)co2)CCC3)cc1

IC50 [1]: > 1000 nM
Structure (SMILES): O=C(Nc1c(-c2ccc([N+](=O)[O-])cc2)ccc2c1CCC2)NS(=O)(=O)CC1CCCCC1
